Experimental data published in patent US12128016B2, “Vanin-1 inhibitor” (EDUCATIONAL FOUNDATION OF OSAKA MEDICAL AND PHARMACEUTICAL …, priority 2021, dated 2024).

Experiments:
[1] = system: Vanin-1; assay: In vivo measurement of Vanin-1 inhibitory activity in sera and kidney tissues using hamsters; parameters: species or system Syrian hamsters; details: hamster, 10 mg/kg subcutaneous injection; for Vanin-1 activity in kidney tissue extracts 1 hour after administration / Vanin-1 activity in kidney tissue extracts 4 hours after administration: kidney tissue extract; for Vanin-1 activity in kidney tissue extracts 1 hour after administration: 1 hour (FIG. 5b); for Vanin-1 activity in kidney tissue extracts 4 hours after administration: 4 hours (FIG. 5b); for Vanin-1 activity in sera 1 hour after administration / Vanin-1 activity in sera 4 hours after administration: serum; for Vanin-1 activity in sera 1 hour after administration: 1 hour (FIG. 5a); for Vanin-1 activity in sera 4 hours after administration: 4 hours (FIG. 5a)
Method: The pantotheine ketone derivatives obtained in Example 1 and Comparative Example 1 were used as a Vanin-1 inhibitor to measure Vanin-1 inhibitory activity in vivo as follows.
An assay buffer and substrate were the same as those used in the in vitro measurement of activity described above. Hamsters used were 6-week-old male Syrian hamsters purchased from Japan SLC.
The pantotheine ketone derivatives of Example 1 and Comparative Example 1 at a dose of 10 mg/kg were each administered by subcutaneous injection in the backs of different hamsters, and 1 hour and 4 hours after the administration, blood collection and kidney removal were performed under anesthesia. The blood and kidney of the normal hamsters were indicated as Normal. The blood was refrigerated overnight at 4° C. and then centrifuged at 3000 rpm for 20 minutes at 4° C., and the supernatant was used as serum. The kidney was homogenized in an assay buffer in an amount 10 times the tissue weight, and centrifuged at 8000 rpm for 30 minutes at 4° C., and the supernatant was used as a kidney tissue extract. Proteins in the kidney tissue were quantified by using a BCA protein assay (Thermo Fishers Scientific).
Vanin-1 inhibitory activity was measured in accordance with the following steps 1 to 7 of: • 1. introducing 80 μL of assay buffer in a 96-well black plate, • 2. adding 10 μL of serum or kidney tissue extract to the wells containing the assay buffer, • 3. adding 10 μL of 1 mM Pantothenate-AMC to the wells from the step [2.], • 4. measuring at Ex=390 nm and Ex=465 nm before incubation, • 5. incubating at 37° C. for 30 minutes, • 6. measuring at Ex=390 nm and Ex=465 nm, • 7. subtracting fluorescence after 0 minute incubation, from fluorescence value after 30 minutes incubation, and calculating enzyme unit (U) using as an index the amount of AMC produced per minute with respect to the fluorescence value of 40 μM AMC as a reference. The Vanin-1 activity in the kidney tissue extracts was further calculated to normalize by the protein concentration. (Results)

[2] = target: T1, Vanin-1 (Homo sapiens, UniProt O95497); assay: In vitro measurement of Vanin-1 inhibitory activity, screening using human serum with Pantothenate-AMC substrate; type: biochemical; details: for IC50: 37° C., 30 minutes incubation, Pantothenate-AMC; for Vanin-1 inhibitory activity relative to that of Comparative Example 1: ratio to Comparative Example 1
T1 construct: For use as human serum, “normal human serum” was purchased from KOHJIN BIO (product number: 12181211); tissue KOHJIN BIO 12181211; host or cells: normal human serum
T1 sequence (O95497 22-491): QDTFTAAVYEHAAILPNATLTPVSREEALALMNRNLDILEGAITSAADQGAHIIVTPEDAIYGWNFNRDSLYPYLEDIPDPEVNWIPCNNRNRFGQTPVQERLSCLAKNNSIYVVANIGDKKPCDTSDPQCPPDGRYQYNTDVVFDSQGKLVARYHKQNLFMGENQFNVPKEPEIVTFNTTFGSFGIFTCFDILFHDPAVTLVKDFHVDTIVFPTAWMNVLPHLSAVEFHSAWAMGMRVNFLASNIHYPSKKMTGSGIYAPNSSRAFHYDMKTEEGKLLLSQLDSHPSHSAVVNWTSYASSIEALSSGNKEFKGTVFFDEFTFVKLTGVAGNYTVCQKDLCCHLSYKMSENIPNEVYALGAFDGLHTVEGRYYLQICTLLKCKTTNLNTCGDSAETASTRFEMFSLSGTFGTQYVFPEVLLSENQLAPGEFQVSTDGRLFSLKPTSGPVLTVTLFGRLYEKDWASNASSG
Method: The pantotheine ketone derivatives obtained in Examples 1 to 5 and Comparative Examples 1 to 9 were used as a Vanin-1 inhibitor to measure Vanin-1 inhibitory activity in vitro as follows.
A 9 g/package phosphate buffer powder (1/15 molL^−1=66 mM, Wako Pure Chemical) was dissolved in 1 L of distilled water to produce an assay buffer. Pantothenate-AMC serving as a substrate was synthesized according to protocols as described in Analytical Biochemistry 2010; 399: 284-292. For use as human serum, “normal human serum” was purchased from KOHJIN BIO (product number: 12181211).
Vanin-1 inhibitory activity was measured in accordance with the following steps 1 to 8 of: • 1. introducing 79 μL of assay buffer in a 96-well black plate, • 2. adding 10 μL of human serum to the wells containing the assay buffer, • 3. adding 1 μL of each Vanin-1 inhibitor (10^−7 M to 10^−2 M in DMSO) or 1 μL of DMSO to the wells from the step [2.], • 4. adding 10 μL of 1 mM Pantothenate-AMC to the wells from the step [3.], • 5. measuring at Ex=390 nm and Ex=465 nm before incubation, • 6. incubating at 37° C. for 30 minutes, • 7. measuring at Ex=390 nm and Ex=465 nm, • 8. subtracting fluorescence after 0 minute incubation, from fluorescence after 30 minutes incubation, to express Vanin-1 inhibitory activity of each inhibitor in percent with respect to that of DMSO being 100%. (Results)

[3] = system: vascular intimal thickening after aorta transplantation; details: rat; 3 mg/mL in drinking water (Non-patent literature 2); cited from earlier work

| SMILES | IC50 [2] [nM] | Vanin-1 inhibitory activity in vitro (comparison in words, FIGS. 1 to 4) [2] | Vanin-1 inhibitory activity relative to that of Comparative Example 1 [2] | Vanin-1 activity in kidney tissue extracts 1 hour after administration [1] | Vanin-1 activity in kidney tissue extracts 4 hours after administration [1] | Vanin-1 activity in sera 1 hour after administration [1] | Vanin-1 activity in sera 4 hours after administration [1] | Effect on vascular intimal thickening after aorta transplantation [3] |
| --- | --- | --- | --- | --- | --- | --- | --- | --- |
| CC(C)(CO)[C@@H](O)C(=O)NCCC(=O)Cc1ccccc1 [Comparative Example 1, reference compound] | 780 |  |  | same as the normal value | same as the normal value | suppressed | returned to normal value | suppressive effect on vascular intimal thickening |
| CC(C)(CO)[C@@H](O)C(=O)NCCC(=O)Cc1cccc2ccccc12 [Comparative Example 7] |  | lower than that of Comparative Example 1 |  |  |  |  |  |  |
| C/C(O)=C/C(=O)CCNC(=O)[C@H](O)C(C)(C)CO [Comparative Example 8] |  | lower than that of Comparative Example 1 |  |  |  |  |  |  |
| C=C=CC(=O)CCNC(=O)[C@H](O)C(C)(C)CO [Comparative Example 9] |  | lower than that of Comparative Example 1 |  |  |  |  |  |  |

Further lines, with some results ahead:

| IC50 [2] [nM] | Vanin-1 inhibitory activity in vitro (comparison in words, FIGS. 1 to 4) [2] | Vanin-1 inhibitory activity relative to that of Comparative Example 1 [2] | SMILES | Vanin-1 activity in kidney tissue extracts 1 hour after administration [1] | Vanin-1 activity in kidney tissue extracts 4 hours after administration [1] | Vanin-1 activity in sera 1 hour after administration [1] | Vanin-1 activity in sera 4 hours after administration [1] | Effect on vascular intimal thickening after aorta transplantation [3] |
| --- | --- | --- | --- | --- | --- | --- | --- | --- |
|  | lower than that of Comparative Example 1 |  | CC(C)(CO)[C@@H](O)C(=O)NCCC(=O)Cc1ccc2ccccc2c1 [Comparative Example 6] |  |  |  |  |  |
| 35 | very high Vanin-1 inhibitory activity | about 20 times | CC(C)(CO)[C@@H](O)C(=O)NCCC(=O)Cc1ccc(OC(F)(F)F)cc1 [Example 1, (R)-2,4-dihydroxy-3,3-dimethyl-N-[3-oxo-4-(4-trifluoromethoxyphenyl)butyl]butanamide] | able to inhibit Vanin-1 | returned to the normal value | suppressed Vanin-1 activity lower than that of Comparative Example 1 | suppressed below the normal value |  |
| 120 | very high Vanin-1 inhibitory activity | about 6 times | CC(C)(CO)[C@@H](O)C(=O)NCCC(=O)Cc1ccc(F)cc1 [Example 2] |  |  |  |  |  |
